Test results from the NIST ThermoML archive (doi:10.1021/je901092b).
Numbers after ± are expanded uncertainties.

Settings: 101.33 kPa, Liquid; for mass density: Pycnometric method

SMILES | viscosity (323.15 K) [mPa·s] | mass density (323.15 K) [kg/m3] | viscosity (328.15 K) [mPa·s] | mass density (328.15 K) [kg/m3] | viscosity (333.15 K) [mPa·s] | mass density (333.15 K) [kg/m3] | viscosity (338.15 K) [mPa·s] | mass density (338.15 K) [kg/m3] | viscosity (343.15 K) [mPa·s] | mass density (343.15 K) [kg/m3] | viscosity (348.15 K) [mPa·s] | mass density (348.15 K) [kg/m3] | viscosity (353.15 K) [mPa·s] | mass density (353.15 K) [kg/m3] | viscosity (363.15 K) [mPa·s] | mass density (363.15 K) [kg/m3] | viscosity (373.15 K) [mPa·s] | mass density (373.15 K) [kg/m3] | viscosity (378.15 K) [mPa·s] | mass density (378.15 K) [kg/m3] | other results
CCCCn1cc[n+](C)c1.[I-] [1-butyl-3-methylimidazolium iodide] | 134.23 ± 14 | 1418 ± 10 | 105.34 ± 8.7 | 1414 ± 10 | 81.51 ± 5.3 | 1406 ± 10 | 65.85 ± 3.3 | 1400 ± 10 | 53.43 ± 2.2 | 1398 ± 10 | 44.68 ± 1.9 | 1396 ± 10 | 36.52 ± 1.6 | 1394 ± 10 | 26.11 ± 0.98 | 1388 ± 10 | 20.43 ± 0.64 | 1382 ± 10 | 18.1 ± 0.66 | 1376 ± 10 | viscosity (299.15 K): 593.68 ± 130 mPa·s; mass density (299.15 K): 1434 ± 10 kg/m3; viscosity (304.15 K): 442.64 ± 89 mPa·s; mass density (304.15 K): 1432 ± 10 kg/m3; viscosity (308.15 K): 336.95 ± 61 mPa·s; mass density (308.15 K): 1430 ± 10 kg/m3; viscosity (313.15 K): 227.98 ± 34 mPa·s; mass density (313.15 K): 1426 ± 10 kg/m3; viscosity (318.15 K): 173.86 ± 21 mPa·s; mass density (318.15 K): 1422 ± 10 kg/m3; viscosity (358.15 K): 30.4 ± 1.2 mPa·s; mass density (358.15 K): 1392 ± 10 kg/m3; viscosity (368.15 K): 22.5 ± 0.76 mPa·s; mass density (368.15 K): 1386 ± 10 kg/m3; viscosity (383.15 K): 15.22 ± 0.61 mPa·s; mass density (383.15 K): 1370 ± 10 kg/m3; viscosity (388.15 K): 13.11 ± 0.52 mPa·s; mass density (388.15 K): 1360 ± 10 kg/m3
CCCCCCn1cc[n+](C)c1.[I-] [1-hexyl-3-methylimidazolium iodide] | 245.55 ± 37 | 1318 ± 10 | 190.14 ± 24 | 1316 ± 10 | 146.47 ± 16 | 1314 ± 10 | 116.13 ± 10 | 1312 ± 10 | 88.04 ± 6.1 | 1310 ± 10 | 73.85 ± 3.8 | 1308 ± 10 | 60.63 ± 2.5 | 1306 ± 10 | 42.23 ± 1.6 | 1302 ± 10 | 30.45 ± 1.2 | 1298 ± 10 | 26.62 ± 0.93 | 1296 ± 10 | viscosity (305.15 K): 809.79 ± 200 mPa·s; mass density (305.15 K): 1326 ± 10 kg/m3; viscosity (309.15 K): 600.07 ± 140 mPa·s; mass density (309.15 K): 1324 ± 10 kg/m3; viscosity (314.15 K): 432.98 ± 87 mPa·s; mass density (314.15 K): 1322 ± 10 kg/m3; viscosity (318.15 K): 334.25 ± 59 mPa·s; mass density (318.15 K): 1320 ± 10 kg/m3; viscosity (359.15 K): 48.47 ± 2.1 mPa·s; mass density (359.15 K): 1304 ± 10 kg/m3; viscosity (383.15 K): 23.19 ± 0.82 mPa·s; mass density (383.15 K): 1294 ± 10 kg/m3; viscosity (388.15 K): 20.3 ± 0.74 mPa·s; mass density (388.15 K): 1292 ± 10 kg/m3
CCCCCCCC[n+]1ccn(C)c1.[I-] [1-methyl-3-octyl-1H-imidazolium iodide] | 296.66 ± 50 | 1240 ± 10 | 229.09 ± 33 | 1234 ± 10 | 174.35 ± 21 | 1230 ± 10 | 138.53 ± 14 | 1228 ± 10 | 104.81 ± 8.5 | 1224 ± 10 | 89.02 ± 5.6 | 1218 ± 10 | 73.17 ± 4 | 1212 ± 10 | 49.6 ± 1.9 | 1206 ± 10 | 35.57 ± 1.4 | 1200 ± 10 | 31.43 ± 1.1 | 1196 ± 10 | viscosity (300.15 K): 1306.3 ± 390 mPa·s; mass density (300.15 K): 1258 ± 10 kg/m3; viscosity (303.15 K): 981.11 ± 260 mPa·s; mass density (303.15 K): 1254 ± 10 kg/m3; viscosity (308.15 K): 726.71 ± 180 mPa·s; mass density (308.15 K): 1250 ± 10 kg/m3; viscosity (313.15 K): 524.3 ± 110 mPa·s; mass density (313.15 K): 1246 ± 10 kg/m3; viscosity (319.15 K): 404.37 ± 77 mPa·s; mass density (319.15 K): 1242 ± 10 kg/m3; viscosity (358.15 K): 58.41 ± 2.5 mPa·s; mass density (358.15 K): 1210 ± 10 kg/m3; viscosity (368.15 K): 43.21 ± 1.7 mPa·s; mass density (368.15 K): 1204 ± 10 kg/m3
